These results are taken from PubChem BioAssay AID256 (DTP/NCI, 2004).

Values joined by “and” are separate entries in the source; they are usually repeats but may differ in a detail not shown here. Equal entries are not always repeated. Toxic doses and inconclusive results are not listed.

In this assay the test system is CD2F1 mice, L1210 leukemia ip, survival T/C. As to the kind of experiment: NCI In Vivo Anticancer Drug Screen. Data for tumor model L1210 Leukemia (intraperitoneal) in CD2F1 (CDF1) mice. The note with it: higher = longer survival. An outline of the steps:
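Tumor-bearing mice (transplanted tumor) were split into treated and vehicle control groups, and the measured endpoint of each treated group was divided by that of its vehicle controls.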

[1] abbreviates: endpoint: mean survival time, dose: 6.25 mg/kg/injection, schedule: Q01DX009 (ip), vehicle: Klucel (hydroxypropylcellulose) (HPC).
Setting [2] is: endpoint: mean survival time, dose: 12.5 mg/kg/injection, schedule: Q01DX009 (ip), vehicle: Klucel (hydroxypropylcellulose) (HPC).
The mark [3] stands for this setting: endpoint: mean survival time, dose: 100.0 mg/kg/injection, schedule: Q01DX001 (ip), vehicle: saline.
Setting [4] is: endpoint: mean survival time, dose: 200.0 mg/kg/injection, schedule: Q01DX001 (ip), vehicle: saline.
Setting [5] is: endpoint: mean survival time, dose: 400.0 mg/kg/injection, schedule: Q01DX001 (ip), vehicle: saline.
The mark [6] stands for this setting: endpoint: mean survival time, dose: 400.0 mg/kg/injection, schedule: Q04DX002 (ip), vehicle: Klucel (hydroxypropylcellulose) (HPC).
[7] abbreviates: endpoint: mean survival time, dose: 100.0 mg/kg/injection, schedule: Q01DX009 (ip), vehicle: saline with Tween-80.
Where [8] appears, read: endpoint: mean survival time, dose: 100.0 mg/kg/injection, schedule: Q04DX003 (ip), vehicle: saline with Tween-80.
The mark [9] stands for this setting: endpoint: mean survival time, dose: 200.0 mg/kg/injection, schedule: Q01DX009 (ip), vehicle: saline with Tween-80.
The mark [10] stands for this setting: endpoint: mean survival time, dose: 200.0 mg/kg/injection, schedule: Q04DX003 (ip), vehicle: saline with Tween-80.
Setting [11] is: endpoint: mean survival time, dose: 400.0 mg/kg/injection, schedule: Q01DX009 (ip), vehicle: saline with Tween-80.
[12] abbreviates: endpoint: mean survival time, dose: 400.0 mg/kg/injection, schedule: Q04DX003 (ip), vehicle: saline with Tween-80.
[13] abbreviates: endpoint: mean survival time, dose: 50.0 mg/kg/injection, schedule: Q04DX003 (ip), vehicle: saline with Tween-80.

Turning to `COC1C(O)=C2C(=O)OC(C)(O)/C=C/C=C\C=C/C=C/C(c3ccccc3)NC(=O)/C=C/C=C/C=C/C=C/C2(C)C1O` (centres undefined), the T/C under setting [1] is 106 % of control; the T/C under setting [2] was 95 % of control; the T/C (endpoint: mean survival time, dose: 25.0 mg/kg/injection, schedule: Q01DX009 (ip), vehicle: Klucel (hydroxypropylcellulose) (HPC)) was 103 % of control.
As to `CCCCC(NC(=O)CN)C(=O)O` (centres undefined), the T/C is, setting by setting: (endpoint: mean survival time, dose: 75.0 mg/kg/injection, schedule: Q04DX002 (ip), vehicle: saline with Tween-80) 111 % of control; (endpoint: mean survival time, dose: 150.0 mg/kg/injection, schedule: Q04DX002 (ip), vehicle: saline with Tween-80) 91 % of control; (endpoint: mean survival time, dose: 300.0 mg/kg/injection, schedule: Q04DX002 (ip), vehicle: saline with Tween-80) 106 % of control.
Take `CC(=O)c1cc(-c2ccc(Cl)cc2)nc2c(Cl)cc(Cl)cc12`: the T/C was 89 % of control under setting [3], 87 % of control under setting [4] and 91 % of control under setting [5].
With `Sc1c(Cl)c(Cl)c(Cl)c(Cl)c1Cl`, the T/C runs as follows: (endpoint: mean survival time, dose: 100.0 mg/kg/injection, schedule: Q04DX002 (ip), vehicle: Klucel (hydroxypropylcellulose) (HPC)) 96 % of control; (endpoint: mean survival time, dose: 200.0 mg/kg/injection, schedule: Q04DX002 (ip), vehicle: Klucel (hydroxypropylcellulose) (HPC)) 90 % of control; under setting [6], 90 % of control.
For the compound `CC(/C=C/C=C/c1ccccc1)=N\O`, the T/C is 101 % of control (endpoint: mean survival time, dose: 100.0 mg/kg/injection, schedule: Q01DX001 (ip), vehicle: Klucel (hydroxypropylcellulose) (HPC)); 110 % of control (endpoint: mean survival time, dose: 200.0 mg/kg/injection, schedule: Q01DX001 (ip), vehicle: Klucel (hydroxypropylcellulose) (HPC)); 104 % of control (endpoint: mean survival time, dose: 400.0 mg/kg/injection, schedule: Q01DX001 (ip), vehicle: Klucel (hydroxypropylcellulose) (HPC)).
For `C[N+](C)(Cc1ccc(F)cc1)C1c2ccccc2-c2ccccc21`, the T/C runs as follows: (endpoint: mean survival time, dose: 1.56 mg/kg/injection, schedule: Q04DX003 (ip), vehicle: saline) 97 % of control; (endpoint: mean survival time, dose: 3.13 mg/kg/injection, schedule: Q04DX003 (ip), vehicle: saline) 97 % of control; (endpoint: mean survival time, dose: 6.25 mg/kg/injection, schedule: Q04DX003 (ip), vehicle: saline) 98 % of control.
Consider `CC(=O)C1C(=O)CC(C)(O)C(C(C)=O)C1c1ccccc1` (centres undefined), for which the T/C under setting [7] was 93 % of control; the T/C under setting [8] was 101 % of control; the T/C under setting [9] was 96 % of control; the T/C under setting [10] is 101 % of control; the T/C under setting [11] was 94 % of control; the T/C under setting [12] is 103 % of control.
As to `CC(=O)O[C@H]1CC[C@@]2(C)[C@@H](CC[C@@H]3[C@@H]2CC(=O)[C@]2(C)[C@@H]4[C@H](C[C@@H]32)O[C@]2(CC[C@@H](C)CO2)[C@H]4C)C1`, the T/C runs as follows: under setting [3], 96 % of control; under setting [4], 101 % of control; under setting [5], 98 % of control.
For the compound `c1ccc(OCC2CO2)c(OCC2CO2)c1` (centres undefined), the T/C is, setting by setting: (endpoint: median survival time, dose: 25.0 mg/kg/injection, schedule: Q01DX009 (ip), vehicle: saline with Tween-80) 110 % of control and 111 % of control; (endpoint: median survival time, dose: 50.0 mg/kg/injection, schedule: Q01DX009 (ip), vehicle: saline with Tween-80) 113 % of control and 117 % of control; (endpoint: median survival time, dose: 200.0 mg/kg/injection, schedule: Q01DX009 (ip), vehicle: saline with Tween-80) 153 % of control and 168 % of control; (endpoint: median survival time, dose: 400.0 mg/kg/injection, schedule: Q01DX009 (ip), vehicle: saline with Tween-80) 104 % of control.
Regarding `CC(=O)NS(=O)(=O)c1ccc([NH-])cc1.CC(=O)NS(=O)(=O)c1ccc([NH-])cc1.[Cl][Pt+2][Cl]`, the T/C by setting is: (endpoint: mean survival time, dose: 25.0 mg/kg/injection, schedule: Q04DX003 (ip), vehicle: saline with Tween-80) 102 % of control; under setting [13], 97 % of control; under setting [8], 96 % of control; under setting [10], 94 % of control; under setting [12], 104 % of control.
In the case of `O=S(=O)(Nc1c(Cl)c(Cl)c(NS(=O)(=O)c2ccccc2)c(Cl)c1Cl)c1ccccc1`, the T/C is 98 % of control (endpoint: mean survival time, dose: 100.0 mg/kg/injection, schedule: Q04DX003 (ip), vehicle: Klucel (hydroxypropylcellulose) (HPC)); 91 % of control (endpoint: mean survival time, dose: 200.0 mg/kg/injection, schedule: Q04DX003 (ip), vehicle: Klucel (hydroxypropylcellulose) (HPC)); 103 % of control (endpoint: mean survival time, dose: 400.0 mg/kg/injection, schedule: Q04DX003 (ip), vehicle: Klucel (hydroxypropylcellulose) (HPC)).
`COc1ccc2c(c1O)-c1cc(O)cc3c1C(C2)N(CCCl)CC3` (centres undefined): the T/C runs as follows: (endpoint: mean survival time, dose: 3.13 mg/kg/injection, schedule: Q04DX003 (ip), vehicle: water) 104 % of control; (endpoint: mean survival time, dose: 6.25 mg/kg/injection, schedule: Q04DX003 (ip), vehicle: water) 102 % of control; (endpoint: mean survival time, dose: 12.5 mg/kg/injection, schedule: Q04DX003 (ip), vehicle: water) 105 % of control; (endpoint: mean survival time, dose: 25.0 mg/kg/injection, schedule: Q04DX003 (ip), vehicle: DMSO) 102 % of control; (endpoint: mean survival time, dose: 25.0 mg/kg/injection, schedule: Q04DX003 (ip), vehicle: water) 100 % of control; (endpoint: mean survival time, dose: 50.0 mg/kg/injection, schedule: Q04DX003 (ip), vehicle: water) 88 % of control.
With `Cc1cc(C)c(/C=N/NC(=O)NN)c(C)c1`, the T/C under setting [8] was 91 % of control, the T/C under setting [10] was 96 % of control and the T/C under setting [12] was 88 % of control.
As to `COC(=O)[C@H]1[C@H]2C[C@@H]3c4[nH]c5cc(OC)ccc5c4CCN3C[C@H]2C[C@@H](OC(=O)c2cc(OC)c(OC)c(OC)c2)[C@@H]1OC`, the T/C is 95 % of control (endpoint: mean survival time, dose: 3.0 mg/kg/injection, schedule: Q01DX009 (ip), vehicle: saline with Tween-80); 94 % of control (endpoint: mean survival time, dose: 6.0 mg/kg/injection, schedule: Q01DX009 (ip), vehicle: saline with Tween-80); 90 % of control (endpoint: mean survival time, dose: 12.5 mg/kg/injection, schedule: Q04DX003 (ip), vehicle: saline with Tween-80); 89 % of control under setting [13].
As for `Nc1cc2nc3ccccc3sc-2cc1=O`, the T/C reads like this: (endpoint: mean survival time, dose: 50.0 mg/kg/injection, schedule: Q01DX009 (ip), vehicle: saline with Tween-80) 102 % of control; under setting [7], 102 % of control; under setting [9], 102 % of control; under setting [11], 89 % of control.
Turning to `CCOC(=O)C1=C(C)N(Cc2ccccc2)C(C)=C(C(=O)OCC)C1(C)C`, the T/C under setting [7] is 107 % of control, the T/C under setting [9] was 109 % of control and the T/C under setting [11] was 107 % of control.
In the case of `C=CCN(CC=C)C1=CC(=O)C(=O)c2ccccc21`, the T/C (endpoint: mean survival time, dose: 75.0 mg/kg/injection, schedule: Q01DX001 (ip), vehicle: saline) was 91 % of control; the T/C (endpoint: mean survival time, dose: 150.0 mg/kg/injection, schedule: Q01DX001 (ip), vehicle: saline) is 100 % of control; the T/C (endpoint: mean survival time, dose: 300.0 mg/kg/injection, schedule: Q01DX001 (ip), vehicle: saline) was 89 % of control.
`Nc1ccc(CSc2ccc(Cl)cc2)cc1`: under setting [6], the T/C was 89 % of control.
Consider `COc1cc2c[n+](C)c3c4cc5c(cc4ccc3c2cc1OC)OCO5` (tested in a mixture with another compound), for which the T/C by setting is: (endpoint: mean survival time, dose: 3.13 mg/kg/injection, schedule: Q01DX009 (ip), vehicle: other) 118 % of control and 112 % of control; (endpoint: mean survival time, dose: 5.0 mg/kg/injection, schedule: Q01DX009 (ip), vehicle: saline) 119 % of control; under setting [1], 112 % of control; (endpoint: mean survival time, dose: 6.25 mg/kg/injection, schedule: Q01DX009 (ip), vehicle: other) 117 % of control and 112 % of control; under setting [2], 124 % of control; (endpoint: mean survival time, dose: 12.5 mg/kg/injection, schedule: Q01DX009 (ip), vehicle: other) 113 % of control and 118 % of control. Besides, the T/C is 113 % of control and 116 % of control (endpoint: mean survival time, dose: 25.0 mg/kg/injection, schedule: Q01DX009 (ip), vehicle: other); 112 % of control (endpoint: mean survival time, dose: 50.0 mg/kg/injection, schedule: Q01DX009 (ip), vehicle: Klucel (hydroxypropylcellulose) (HPC)).
In the case of `Cc1ccc(CNc2ccc(I)cc2)cc1`, the T/C under setting [8] was 93 % of control, the T/C under setting [10] is 88 % of control and the T/C under setting [12] is 86 % of control.
